Source: US20130338130A1 (priority 2009, published 2013)

Legend:
[1] = system: ATCC strain 43300 Staphylococcus aureus; test: MRSA survival in MSM, DMSO and oxacillin, 48 hours (Example 2)
Method: All concentrations were plated out to the 10^−7 dilutions to ascertain cfu/ml.
Material was calculated on a 10 ml volume. […] Sterile DMSO was added to appropriate tubes. Sterile oxacillin was added to appropriate tubes at 300 microliters from a 30 mg/10 ml concentration giving it a final concentration of 6 μg/ml. Control conditions were Lactose Broth inoculated with ATCC strain 43300 Staphylococcus aureus with and without 6 μg/ml oxacillin, as well as uninoculated negative controls to show no signs of contamination.
Appropriate tubes were inoculated at a dilution of ATCC strain 43300 Staphylococcus aureus giving a final concentration of colony forming units of 3.15×10^7/ml (Log=7.49). The tubes were incubated at 25° C. and mixed periodically. Plating was done at 48 hours. […] They were serial diluted down to 10^−7 with 1 ml placed in a sterile petri dish at each dilution point. Then 20 mls of TSA was added to each dilution and swirled and allowed to solidify. All dilutions were placed in a 35° C. incubator for 24 hours. Plates were counted and colony counts changed into log format. A positive and negative control was ascertained.

[2] = system: ATCC strain 43300 Staphylococcus aureus; test: MSM alone, MRSA survival (Example 1); conditions: 5-16% MSM alone, no antibiotic, 24 or 48 hour
Method: (§1) USP<51> Antimicrobial Effectiveness protocol was used as the template experimental paradigm. […] All concentrations were plated out to the 10^−7 dilutions to ascertain cfu/ml.
Material was calculated on a 10 ml volume.
All tubes were inoculated with a dilution of MRSA giving a final level of colony forming units of 2.0×10^5/ml (Log=5.23). The tubes were incubated at 25° C. and mixed periodically. Plating was done at 24 and 48 hours. Each condition was plated by diluting 1 ml of growth material into 9 ml of MLB diluent broth. This mixture was serial diluted down to 10^−7, and 1 ml placed in a sterile petri dish at each dilution point. 20 mls of TSA was added to each dilution, swirled and allowed to solidify. All dilutions were placed in a 35° C. incubator for 24 hours. Bacterial colonies on each plate were counted and colony counts changed into log format. A positive and negative control was ascertained.

[3] = system: ATCC strain 43300 Staphylococcus aureus; test: MRSA survival in MSM and 6 μg/ml oxacillin or methicillin, 24, 48, 120 hours (Example 4)
Method: The growth periods tested were 24 hours, 48 hours and 5 days.
as §1
Material was calculated on a 10 ml volume. Sterile oxacillin or methicillin was added to each experimental condition daily at 300 μl from a 30 mg/10 ml concentration giving it an initial final concentration of 6 μg/ml.
All tubes were inoculated with a dilution of MRSA giving a final level of colony forming units of 2.13×10^6/ml (Log=6.3). The tubes were incubated at 25° C. and mixed periodically. Plating was done at 24 hours, 48 hours and 5 days. Each condition was plated by diluting 1 ml of growth material into 9 ml of MLB diluent broth. This mixture was serial diluted down to 10^−7, and 1 ml placed in a sterile petri dish at each dilution point. 20 mls of TSA was added to each dilution, swirled and allowed to solidify. All dilutions were placed in a 35° C. incubator for 24 hours. Bacterial colonies on each plate were counted and colony counts changed into log format. A positive and negative control was ascertained.

[4] = 6 μg/ml methicillin + MSM (initial % in label), 48 hours, listed as 5% MSM
[5] = 6 μg/ml methicillin + MSM (initial % in label), 48 hours, listed as 16% MSM
[6] = 6 μg/ml oxacillin + MSM (initial % in label), 48 hours, listed as 8% MSM
[7] = 6 μg/ml oxacillin + MSM (initial % in label), 48 hours, listed as 16% MSM

## CS(C)(=O)=O [MSM, Methylsulfonylmethane]
[1]; MA condition (6 μg/ml oxacillin + MSM)
  log reduction in cfu/ml: 2.0 log
[1]; MA condition, 10-16% MSM
  maximum log reduction in cfu/ml: 2.9 log
[1]; MDA condition (6 μg/ml oxacillin + MSM + 1% DMSO), listed as 9% MSM
  log reduction in cfu/ml: 1.6 log
[1]; MDA condition (6 μg/ml oxacillin + MSM + 1% DMSO), listed as 10-16% MSM
  log reduction in cfu/ml: 2.0 log
[2]
  effect on survival: none of the concentrations of MSM tested had any effect on the survival
[3]; 6 μg/ml methicillin + MSM (initial % in label), 48 Hours, listed as 8% MSM
  survival (Log cfu/ml): 3.60 Log cfu/ml
[3]; 6 μg/ml methicillin + MSM (initial % in label), 48 Hours, listed as 10% MSM
  survival (Log cfu/ml): 3.70 Log cfu/ml
[3]; 6 μg/ml methicillin + MSM (initial % in label), 48 Hours, listed as 12% MSM
  survival (Log cfu/ml): 3.70 Log cfu/ml
[3]; 6 μg/ml methicillin + MSM (initial % in label), 48 Hours, listed as 13% MSM
  survival (Log cfu/ml): 3.90 Log cfu/ml
[3]; 6 μg/ml methicillin + MSM (initial % in label), 48 Hours, listed as 14% MSM
  survival (Log cfu/ml): 3.98 Log cfu/ml
[3]; 6 μg/ml methicillin + MSM (initial % in label), 48 Hours, listed as 15% MSM
  survival (Log cfu/ml): 4.00 Log cfu/ml
[3]; 6 μg/ml methicillin + MSM (initial % in label), 24 hours, 3.5% MSM and antibiotic added daily, inoculum Log=6.3
  survival (Log cfu/ml): 4.30 Log cfu/ml
[3]; 6 μg/ml methicillin + MSM (initial % in label), 24 hours, 3.5% MSM and antibiotic added daily, inoculum Log=6.3, listed as 8% MSM
  survival (Log cfu/ml): 4.50 Log cfu/ml
[3]; 6 μg/ml methicillin + MSM (initial % in label), 24 hours, 3.5% MSM and antibiotic added daily, inoculum Log=6.3, listed as 10% MSM
  survival (Log cfu/ml): 4.40 Log cfu/ml
[3]; 6 μg/ml methicillin + MSM (initial % in label), 24 hours, 3.5% MSM and antibiotic added daily, inoculum Log=6.3, listed as 12% MSM
  survival (Log cfu/ml): 4.60 Log cfu/ml
[3]; 6 μg/ml methicillin + MSM (initial % in label), 24 hours, 3.5% MSM and antibiotic added daily, inoculum Log=6.3, listed as 13% MSM
  survival (Log cfu/ml): 4.90 Log cfu/ml
[3]; 6 μg/ml methicillin + MSM (initial % in label), 24 hours, 3.5% MSM and antibiotic added daily, inoculum Log=6.3, listed as 14% MSM
  survival (Log cfu/ml): 4.90 Log cfu/ml
[3]; 6 μg/ml methicillin + MSM (initial % in label), 24 hours, 3.5% MSM and antibiotic added daily, inoculum Log=6.3, listed as 15% MSM
  survival (Log cfu/ml): 5.00 Log cfu/ml
[3]; 6 μg/ml methicillin + MSM (initial % in label), 24 hours, 3.5% MSM and antibiotic added daily, inoculum Log=6.3, listed as 16% MSM
  survival (Log cfu/ml): 5.00 Log cfu/ml
[3]; [4]
  average log reduction in cfu/ml: 2.7 log
  survival (Log cfu/ml): 3.60 Log cfu/ml
[3]; [5]
  average log reduction in cfu/ml: 2.1 log
  survival (Log cfu/ml): 4.17 Log cfu/ml
[3]; 6 μg/ml methicillin + MSM (initial % in label), 120 hours, listed as 5% MSM
  survival (Log cfu/ml): TNTC
[3]; 6 μg/ml methicillin + MSM (initial % in label), 120 hours, listed as 8% MSM
  survival (Log cfu/ml): TNTC
[3]; 6 μg/ml methicillin + MSM (initial % in label), 120 hours, listed as 10% MSM
  survival (Log cfu/ml): TNTC
[3]; 6 μg/ml methicillin + MSM (initial % in label), 120 hours, listed as 12% MSM
  survival (Log cfu/ml): 4.20 Log cfu/ml
[3]; 6 μg/ml methicillin + MSM (initial % in label), 120 hours, listed as 13% MSM
  survival (Log cfu/ml): 2.80 Log cfu/ml
[3]; 6 μg/ml methicillin + MSM (initial % in label), 120 hours, listed as 14% MSM
  survival (Log cfu/ml): 2.90 Log cfu/ml
[3]; 6 μg/ml methicillin + MSM (initial % in label), 120 hours, listed as 15% MSM
  survival (Log cfu/ml): 2.80 Log cfu/ml
[3]; 6 μg/ml methicillin + MSM (initial % in label), 120 hours, listed as 16% MSM
  survival (Log cfu/ml): 2.80 Log cfu/ml
[3]; 6 μg/ml methicillin + initial 13-16% MSM, 120 hours
  Log reduction in cfu/ml: ~3.5 log
[3]; 6 μg/ml oxacillin + MSM (initial % in label), 48 Hours, listed as 5% MSM
  survival (Log cfu/ml): 5.20 Log cfu/ml
[3]; 6 μg/ml oxacillin + MSM (initial % in label), 48 Hours, listed as 10% MSM
  survival (Log cfu/ml): 4.20 Log cfu/ml
[3]; 6 μg/ml oxacillin + MSM (initial % in label), 48 Hours, listed as 12% MSM
  survival (Log cfu/ml): 4.30 Log cfu/ml
[3]; 6 μg/ml oxacillin + MSM (initial % in label), 48 Hours, listed as 13% MSM
  survival (Log cfu/ml): 4.20 Log cfu/ml
[3]; 6 μg/ml oxacillin + MSM (initial % in label), 48 Hours, listed as 14% MSM
  survival (Log cfu/ml): 4.40 Log cfu/ml
[3]; 6 μg/ml oxacillin + MSM (initial % in label), 48 Hours, listed as 15% MSM
  survival (Log cfu/ml): 4.40 Log cfu/ml
[3]; 6 μg/ml oxacillin + MSM (initial % in label), 24 hours, listed as 5% MSM
  survival (Log cfu/ml): 4.90 Log cfu/ml
[3]; 6 μg/ml oxacillin + MSM (initial % in label), 24 hours, listed as 8% MSM
  survival (Log cfu/ml): 5.00 Log cfu/ml
[3]; 6 μg/ml oxacillin + MSM (initial % in label), 24 hours, listed as 10% MSM
  survival (Log cfu/ml): 5.00 Log cfu/ml
[3]; 6 μg/ml oxacillin + MSM (initial % in label), 24 hours, listed as 12% MSM
  survival (Log cfu/ml): 5.20 Log cfu/ml
[3]; 6 μg/ml oxacillin + MSM (initial % in label), 24 hours, listed as 13% MSM
  survival (Log cfu/ml): 5.00 Log cfu/ml
[3]; 6 μg/ml oxacillin + MSM (initial % in label), 24 hours, listed as 14% MSM
  survival (Log cfu/ml): 5.20 Log cfu/ml
[3]; 6 μg/ml oxacillin + MSM (initial % in label), 24 hours, listed as 15% MSM
  survival (Log cfu/ml): 5.23 Log cfu/ml
[3]; 6 μg/ml oxacillin + MSM (initial % in label), 24 hours, listed as 16% MSM
  survival (Log cfu/ml): 5.25 Log cfu/ml
[3]; [6]
  average log reduction in cfu/ml: 2.7 log
  survival (Log cfu/ml): 3.60 Log cfu/ml
[3]; [7]
  average log reduction in cfu/ml: 2.1 log
  survival (Log cfu/ml): 4.17 Log cfu/ml
[3]; 6 μg/ml oxacillin + MSM (initial % in label), 120 hours, listed as 5% MSM
  survival (Log cfu/ml): TNTC
[3]; 6 μg/ml oxacillin + MSM (initial % in label), 120 hours, listed as 8% MSM
  survival (Log cfu/ml): TNTC
[3]; 6 μg/ml oxacillin + MSM (initial % in label), 120 hours, listed as 10% MSM
  survival (Log cfu/ml): TNTC
[3]; 6 μg/ml oxacillin + MSM (initial % in label), 120 hours, listed as 12% MSM
  survival (Log cfu/ml): TNTC
[3]; 6 μg/ml oxacillin + MSM (initial % in label), 120 hours, listed as 13% MSM
  survival (Log cfu/ml): TNTC
[3]; 6 μg/ml oxacillin + MSM (initial % in label), 120 hours, listed as 14% MSM
  survival (Log cfu/ml): 3.00 Log cfu/ml
[3]; 6 μg/ml oxacillin + MSM (initial % in label), 120 hours, listed as 15% MSM
  survival (Log cfu/ml): 3.00 Log cfu/ml
[3]; 6 μg/ml oxacillin + MSM (initial % in label), 120 hours, listed as 16% MSM
  survival (Log cfu/ml): 3.00 Log cfu/ml
[3]; 6 μg/ml oxacillin + initial 14-16% MSM, 120 hours
  Log reduction in cfu/ml: ~3.3 log
